Some test systems named below: 786-0 renal; A549 NSCLC; CCRF-CEM leukemia; HOP-92 NSCLC; LOX IMVI melanoma; MALME-3M melanoma; MDA-MB-435; MOLT-4 leukemia; OVCAR-4 ovarian; SK-MEL-2 melanoma; SW-620 colon.
Holding throughout (assay): inhibition of tumour cell growth, NCI panel, 48 h

This is an account of results in PubChem BioAssay (NCI).

SMILES strings stand for the structures.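 Values below derive from 48-hour exposures of cells grown in 96-well plates, with endpoints linearly interpolated between the two concentrations bracketing the appropriate inhibition level. The concentration for full growth arrest is given as TGI.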

Take `CC1=NN=C(C)C1N=Nc1ccc2nc(C)[nH]c2c1`: the TGI with 786-0 renal is above 100 µM; in the test on A549 NSCLC, above 100 µM; in the test with CCRF-CEM leukemia, above 100 µM; in the test on HOP-92 NSCLC it was 65.4 µM; with LOX IMVI melanoma, above 63.9 µM; with MALME-3M melanoma, above 50.5 µM. For the same compound, the TGI in the test on MDA-MB-435 was above 100 µM; in the test with MOLT-4 leukemia it was above 85.9 µM; in the test on OVCAR-4 ovarian, above 100 µM; with SK-MEL-2 melanoma it was 36.3 µM; with SW-620 colon, above 100 µM.
Regarding `O=C1CN(c2ccccc2)Cc2nc(Cl)ccc2N1`, the TGI in the test on 786-0 renal, in the test on A549 NSCLC, in the test with CCRF-CEM leukemia, with HOP-92 NSCLC, in the test on LOX IMVI melanoma and with MALME-3M melanoma was above 100 µM in each case. For the same compound, the TGI with MDA-MB-435, in the test with MOLT-4 leukemia, in the test on OVCAR-4 ovarian, in the test on SK-MEL-2 melanoma and in the test with SW-620 colon was above 100 µM in each case.
On to `Cc1cccc(C2ON=C(c3ccccc3)N2C23CC4CC(CC(C4)C2)C3)c1` (stereo unspecified), for which the TGI in the test with 786-0 renal, in the test on A549 NSCLC, with CCRF-CEM leukemia, in the test on HOP-92 NSCLC, in the test with LOX IMVI melanoma and in the test on MALME-3M melanoma was above 10 µM in each case. In addition, the TGI with MDA-MB-435, with MOLT-4 leukemia, in the test with OVCAR-4 ovarian, in the test with SK-MEL-2 melanoma and with SW-620 colon was above 10 µM each time.
As for `CS(=O)(=O)N1CC(CCl)c2ccc(NO)cc21` (stereo unspecified), the TGI in the test with 786-0 renal is 28 µM; in the test with A549 NSCLC, above 100 µM; with CCRF-CEM leukemia it was 5.1 µM; with HOP-92 NSCLC, 27.9 µM; in the test on LOX IMVI melanoma, 29.4 µM; with MALME-3M melanoma, 37.7 µM. The TGI was 35.4 µM in the test with MDA-MB-435; 19 µM with MOLT-4 leukemia; 40.7 µM in the test on OVCAR-4 ovarian; 41.3 µM in the test with SK-MEL-2 melanoma; above 50.4 µM with SW-620 colon.
Take `O=C/C(=C1/C=Cc2cc([N+](=O)[O-])ccc2S1)c1ccccc1`: the TGI with 786-0 renal, in the test on A549 NSCLC, in the test on CCRF-CEM leukemia, with HOP-92 NSCLC, in the test on LOX IMVI melanoma and in the test with MALME-3M melanoma was above 100 µM in each case. Besides, the TGI in the test on MDA-MB-435, in the test on MOLT-4 leukemia, in the test on OVCAR-4 ovarian and in the test with SK-MEL-2 melanoma was above 100 µM throughout.
Turning to `Brc1ccc(C2C3CSc4ccccc4C3=NN2c2ccccc2)cc1` (stereo unspecified), the TGI in the test on 786-0 renal, with A549 NSCLC, with CCRF-CEM leukemia, in the test on HOP-92 NSCLC, in the test on LOX IMVI melanoma and in the test with MALME-3M melanoma was above 100 µM in each case. Also, the TGI in the test with MDA-MB-435 was above 100 µM; with MOLT-4 leukemia, above 100 µM; with OVCAR-4 ovarian, 91.7 µM; in the test with SK-MEL-2 melanoma, above 100 µM; with SW-620 colon, above 100 µM.
On to `CN(C)c1ccc(/C=C/C(=O)c2ccc(O)cc2)cc1`, for which the TGI in the test on 786-0 renal was above 78.3 µM; with A549 NSCLC it was above 100 µM; in the test on CCRF-CEM leukemia it was 17.4 µM; with HOP-92 NSCLC, above 100 µM; in the test on LOX IMVI melanoma it was 45.1 µM; with MALME-3M melanoma, 51 µM. Besides, the TGI in the test with MDA-MB-435 is 3.22 µM; in the test on MOLT-4 leukemia, 21 µM; in the test on OVCAR-4 ovarian, above 100 µM; with SK-MEL-2 melanoma, above 49.1 µM; in the test with SW-620 colon, above 100 µM.
On to `CC(=O)CCCCn1c(=O)c2c(nc(Br)n2C)n(C)c1=O`, for which the TGI in the test with 786-0 renal is above 100 µM; with A549 NSCLC, above 100 µM; in the test on CCRF-CEM leukemia, above 100 µM; with HOP-92 NSCLC it was 31.7 µM; in the test on LOX IMVI melanoma it was above 100 µM; in the test with MALME-3M melanoma, above 100 µM. Besides, the TGI in the test with MDA-MB-435, with MOLT-4 leukemia, with OVCAR-4 ovarian, in the test on SK-MEL-2 melanoma and in the test with SW-620 colon was above 100 µM in each case.
With `COc1ccc(/C=c2\c(=O)[nH]c3nc4ccccc4c(=O)n23)cc1`, the TGI with 786-0 renal, in the test on A549 NSCLC, in the test on CCRF-CEM leukemia, with HOP-92 NSCLC, in the test with LOX IMVI melanoma and in the test on MALME-3M melanoma was above 100 µM in each case. In addition, the TGI with MDA-MB-435, in the test on MOLT-4 leukemia, in the test with OVCAR-4 ovarian, in the test on SK-MEL-2 melanoma and in the test on SW-620 colon was above 100 µM each time.
In the case of `CCN(CC)CCCNc1c2c(Cl)cc(Cl)cc2nc2nc(=O)[nH]c(C)c12`, the TGI with 786-0 renal was 38.1 µM; in the test with A549 NSCLC, above 100 µM; in the test with CCRF-CEM leukemia it was above 100 µM; in the test on HOP-92 NSCLC, above 100 µM; with LOX IMVI melanoma, 48.5 µM; with MALME-3M melanoma, above 100 µM. In addition, the TGI was 49.2 µM in the test on MDA-MB-435; 54.3 µM with MOLT-4 leukemia; above 100 µM in the test on OVCAR-4 ovarian; above 100 µM in the test with SK-MEL-2 melanoma; 37.9 µM in the test on SW-620 colon.
With `O=c1[nH]/c(=C/c2ccc3c(c2)OCO3)c(=O)[nH]/c1=C/c1ccc2c(c1)OCO2`, the TGI in the test with 786-0 renal, in the test on A549 NSCLC, with CCRF-CEM leukemia, in the test on HOP-92 NSCLC, with LOX IMVI melanoma and in the test on MALME-3M melanoma was above 10 µM each time. The TGI with MDA-MB-435, in the test on MOLT-4 leukemia, with OVCAR-4 ovarian, with SK-MEL-2 melanoma and in the test on SW-620 colon was above 10 µM in each case.
Regarding `C[C@@H](CC(O)C(O)C(C)(C)O)C1CCC23CC12CCC1[C@@]2(C)CCC(O)C(C)(C)C2CC(OC2OC(CO)C(O)C(O)C2O)[C@]13C` (stereo partly specified), the TGI in the test with 786-0 renal, in the test with A549 NSCLC, with CCRF-CEM leukemia, in the test with HOP-92 NSCLC, in the test on LOX IMVI melanoma and in the test with MALME-3M melanoma was above 10 µM throughout. Also, the TGI in the test with MDA-MB-435, in the test with MOLT-4 leukemia, with OVCAR-4 ovarian, in the test with SK-MEL-2 melanoma and in the test with SW-620 colon was above 10 µM each time.
